We go through two compounds from US20130115257A1, “COMPOSITIONS AND METHODS FOR REMOVAL OR DESTRUCTION OF AMYLOID FIBRIL OR AMYLOID ADHESIN COMPRISING AGGREGATES” (KATHOLIEKE UNIVERSITEIT LEUVEN, priority 2010, published 2013).

“Also recorded” adds a separate entry of the source. Structures can show the parent of a compound that is named as a salt.

Data set [1] concerns Congo Red-amyloid fibril complex (insulin fibrils). The data set can be described thus: AFM of Congo Red-amyloid fibril complex after incubation with metal ions or colloids (fibril disintegration). Conditions: CR-stained insulin fibrils, 5 mmol/L silver ions, 15 minutes; for disintegration of the dye-amyloid fibers (AFM image): rinsed and dried. As to the method:
(§1) Amyloid fibrils from the insulin hormone were obtained by dissolving insulin (3.5 mmol/L) in water adjusted to pH 2 with HCl and heated to 70° C. for 2 hours. Samples were diluted to a concentration of 7 μmol/L at room temperature and transferred to a piranha (4:1, H2SO4:H2O2) cleaned naturally oxidized silicon wafer. After 15 minutes of incubation the silicon surface was rinsed with water. The amyloid fibers on the silicon surface are then incubated with a 140 μmol/L solution of CR in water during 2 hours and successively rinsed with water.
The predominant particles are soluble dimers and higher order aggregates with the hydrophobic regions sequestered from the aqueous environment (D. Watson et al., Neurological Research 27, 869-881 (2005)). The soluble oligomeric amyloid-beta peptides are the principal constituent of amyloid deposits such as plaques and intraneuronal tangles.
The positively charged metal ions bind to the negatively charged sulfonate groups of the dye and interfere with the electrostatic bond between the negatively charged group of the CR molecule and the basic amino acid side chain of the fibril. This way the dye-peptide bond is disrupted at the monomer level, which causes the disintegration of the fibril. Our in vitro study points out that neurodegenerative disorders can be treated by negatively charged molecules, like CR which intercalate between the amyloid β-strands and induce a destabilization of the CR-fibril complex when metallic ions such as silver ions are introduced.

Data set [2] deals with amyloid fibrils from insulin. The data set can be described thus: Atomic force microscopy of insulin amyloid fibrils incubated with Congo red. It counts as binding. Conditions: 140 μmol/L CR in water, 2 hours, fibrils on silicon surface. As to the method: as §1
For a further data set, the system named is insulin fibrils. The experiment in a line: Fluorescence microscopy of dye-amyloid fibril complexes. It counts as binding. Conditions: insulin fibrils incubated with CR. The text has this: The dye-amyloid fibril complexes were also imaged with fluorescence microscopy, as CR is a fluorophore. […] Bright contrast in the fluorescence images corresponds to the presence of the fluorophore on the insulin fibrils, which themselves are not fluorescent.

For data set [3] the following is noted: water; organic solvents such as ethanol; cited from earlier work.

For the compound silver ions, in data set [1], the “heights of the particles left after disintegration (AFM)” value is 1-2 nm and the “disintegration of the dye-amyloid fibers (AFM image)” value is “total disintegration”.
`Nc1c(/N=N/c2ccc(-c3ccc(/N=N/c4cc(S(=O)(=O)O)c5ccccc5c4N)cc3)cc2)cc(S(=O)(=O)O)c2ccccc12` [Congo red, sodium salt of benzidinediazo-bis-1-naphthylamine-4-sulfonic acid]: in data set [2], the “average cross section of the dye-amyloid fiber (AFM)” value is “same dimension as in the absence of CR”. Besides, the “presence of the fluorophore on the insulin fibrils (fluorescence images)” value in the data set with insulin fibrils is given as “bound or intercalated evenly in the insulin fibrils”. In addition, the “disintegration of the dye-amyloid fibers (AFM image)” value in data set [1] is “total disintegration of the amyloid fibrils into peptide monomers”. In addition, in data set [3], the solubility result was “water soluble; also recorded: solubility is better in organic solvents such as ethanol”.
